T1: BT_1526 MIPS (Bacteroides thetaiotaomicron, UniProt Q8A7J8)
T1 construct: full-length wild-type ORF (synthetic gene), pET-28a, N-terminal His6 tag, E. coli BL21(DE3); HisTrap and Superdex S200; tetramer in crystal
T1 sequence (Q8A7J8 1-429): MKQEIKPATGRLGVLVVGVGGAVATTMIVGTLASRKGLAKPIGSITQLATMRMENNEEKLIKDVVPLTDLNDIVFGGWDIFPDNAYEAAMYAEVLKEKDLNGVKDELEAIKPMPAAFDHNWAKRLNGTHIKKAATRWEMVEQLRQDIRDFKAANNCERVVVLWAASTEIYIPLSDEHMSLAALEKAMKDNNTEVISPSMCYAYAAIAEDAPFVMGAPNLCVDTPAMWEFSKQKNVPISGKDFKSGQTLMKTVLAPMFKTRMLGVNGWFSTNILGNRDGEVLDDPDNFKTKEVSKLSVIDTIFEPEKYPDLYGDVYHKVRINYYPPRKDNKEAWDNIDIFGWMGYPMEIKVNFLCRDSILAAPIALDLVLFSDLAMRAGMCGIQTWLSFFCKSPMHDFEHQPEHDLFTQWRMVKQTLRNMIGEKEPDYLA


Experiments:
BT_1526 MIPS = target: T1, BT_1526 MIPS; test: X-ray crystal structure, […] Å; details: cofactor binding site; crystals grown at pH 6.5, 20 °C
[1] = target: the molecule itself; test: crystal structure; sitting drop vapour diffusion, 20 °C; 200 mM sodium formate, 100 mM bis tris propane pH 6.5, 20% (w/v) PEG 3350; protein at 11.4 mg/ml; MIPS:NAD complex

Molecule	X-ray crystal structure, 2.0 Å (BT_1526 MIPS)	stoichiometry N [1]
NC(=O)c1ccc[n+]([C@@H]2O[C@H](COP(=O)(O)OP(=O)(O)OC[C@H]3O[C@@H](n4cnc5c(N)ncnc54)[C@H](O)[C@@H]3O)[C@@H](O)[C@H]2O)c1 [NAD, NAD+]	the structure of the MIPS:NAD complex in the cofactor binding site	
BT_1526 myo-inositol phosphate synthase (MIPS) of Bacteroides thetaiotaomicron (enzyme, UniProt Q8A7J8 1-429, looked up, myo-inositol phosphate synthase BT_1526 of Bacteroides thetaiotaomicron VPI-5482; synthetic gene encoding the BT_1526 open reading frame (wild type) in pET-28a; No cleavage of the His tag is described; also called BT_1526 MIPS; BT MIP synthase; source: E. coli BL21 (DE3), purified (HisTrap, Superdex S200 size-exclusion chromatography)) MKQEIKPATGRLGVLVVGVGGAVATTMIVGTLASRKGLAKPIGSITQLATMRMENNEEKLIKDVVPLTDLNDIVFGGWDIFPDNAYEAAMYAEVLKEKDLNGVKDELEAIKPMPAAFDHNWAKRLNGTHIKKAATRWEMVEQLRQDIRDFKAANNCERVVVLWAASTEIYIPLSDEHMSLAALEKAMKDNNTEVISPSMCYAYAAIAEDAPFVMGAPNLCVDTPAMWEFSKQKNVPISGKDFKSGQTLMKTVLAPMFKTRMLGVNGWFSTNILGNRDGEVLDDPDNFKTKEVSKLSVIDTIFEPEKYPDLYGDVYHKVRINYYPPRKDNKEAWDNIDIFGWMGYPMEIKVNFLCRDSILAAPIALDLVLFSDLAMRAGMCGIQTWLSFFCKSPMHDFEHQPEHDLFTQWRMVKQTLRNMIGEKEPDYLA		4

Reference: publication PMC9246714, “Characterization of inositol lipid metabolism in gut-associated Bacteroidetes” (Nature Microbiology, 2022)
